Measured values taken from patent publication US20040038419A1, “Assays and kits for detecting the presence of nitriles and/or cyanide” (priority 2002, published 2004).

Assays:
Type in all cases: biochemical
Conditions in all cases: lyophilized nitrilase lysate added; OPA or NDA as fluorogenic reagent
[1] = system: nitrilase of SEQ ID NO: 60; assay: OPA/NDA fluorescence assay of nitrile hydrolysis by nitrilase
Text: (§1) FIG. 5C illustrates detection curves for hydroxylpivaldehyde aminonitrile (HPA), HPA combined with a nitrilase of SEQ ID NO: 56(“HPA+SEQ ID NO: 56”), dimethylbutanal aminonitrile (DMB), and DMB combined with a nitrilase of SEQ ID NO: 60 (“DMB+SEQ ID NO: 60”), all using OPA as the fluorogenic reagent.
(§2) FIG. 5D illustrates detection curves for HPA, HPA combined with a nitrilase of SEQ ID NO: 56 (“HPA+SEQ ID NO: 56”), DMB, and DMB combined with a nitrilase of SEQ ID NO: 60 (“DMB+SEQ ID NO: 60”), all using NDA as the fluorogenic reagent.
(§3) In assays using certain substrates, naphthalene dicarboxaldehyde (NDA) was substituted for OPA as the fluorescing agent. Calibration curves for APA, PAH, HPA and DMB, with either OPA or NDA were constructed (see FIGS. 5A, 5B, 5C and 5D). To determine sensitivity and background fluorescence, lyophilized nitrilase lysates with SEQ ID NOS: 190, 56, and 60 were added, respectively.

[2] = system: nitrilase of SEQ ID NO: 56; assay: as above
Text: as §1, §2, §3

[3] = system: nitrilase having SEQ ID NO: 190; assay: OPA/NDA fluorescence assay of nitrile hydrolysis by lyophilized nitrilase lysate
Text: FIG. 5A illustrates detection curves for assays of pivaldehyde aminonitrile (PAH), PAH combined with a lyophilized nitrilase lysate having a SEQ ID NO: 190 (“PAH+SEQ ID NO: 190”), acetophenone aminonitrile (APA), and APA combined with a lyophilized nitrilase lysate having a SEQ ID NO: 190 (“APA+SEQ ID NO: 190”), all using OPA as the fluorogenic reagent.
FIG. 5B illustrates detection curves for PAH, PAH combined with a lyophilized nitrilase lysate having a SEQ ID NO: 190 (“PAH+SEQ ID NO: 190”), APA, and APA combined with a lyophilized nitrilase lysate having a SEQ ID NO: 190 (“APA+SEQ ID NO: 190”), all using naphthalene dicarboxyaldehyde (NDA) as the fluorogenic reagent.
as §3

In the case of dimethylbutanal aminonitrile [DMB], the “hydrolysis of the enzyme substrate” value [1] is reported as “Hydrolysis was detected”.
`CC(C)(CO)C(N)C#N` (stereo not drawn) [HPA, hydroxylpivaldehyde aminonitrile] was tested, and the “hydrolysis of the enzyme substrate” value [2] was “Hydrolysis was detected”.
With `CC(N)(C#N)c1ccccc1` (stereo not drawn) [APA, acetophenone aminonitrile] the “hydrolysis of the enzyme substrate” value [3] was “Hydrolysis was detected”.
